# Source: publication PMC4542541, “Flexibility and extracellular opening determine the interaction between ligands and insect sulfakinin receptors” (Scientific Reports, 2015)
# Entries after “also recorded” stand apart in the source; their conditions may differ.
# Experiments:
# TcSKR2 [1] = test: Receptor activation bioassay, CRE-luciferase reporter in Sf9-TcSKR2 cells; assay type: cell-based, Tribolium castaneum; set-up: key to peptide marked active on TcSKR2: *: A peptide is active on the sulfakinin receptor (SKR); conditions: for peptide marked active on TcSKR2: 10 μM, one-way ANOVA with Dunnett's posttest vs nsSK and medium control; for activity on TcSKR2 in words: compared to parental peptide nsSK, Sf9 cell-based reporter; for relative activity (% nsSK) TcSKR2: peptide 10 μM, Sf9-TcSKR2 cells transiently transfected with pGL4.29[luc2P/CRE/Hygro], 5 h at 27 °C, Bright-Glo luminescence, activity related to nsSK, mean ± SEM, at least two biological replicates, SEM
# Description: (§1) Sf9 cells (Spodoptera frugiperda) and Sf9-TcSKR1 and Sf9-TcSKR2 cells generated previously[21] were routinely cultured in SF-900™ II SFM medium (Life Technologies, Merelbeke, Belgium) at 27 °C in darkness. The medium for Sf9-TcSKR1 and Sf9-TcSKR2 was supplemented with 20 μg/ml of puromycin (Life Technologies, Merelbeke, Belgium) to maintain the stable expression of TcSKRs.
# (§2) The reporter vector pGL4.29[luc2P/CRE/Hygro] (CRE; Promega, Leiden, the Netherlands) was applied here and it has a cAMP (cyclic adenosine 3′, 5′-cyclic monophosphate) response element upstream the reporter gene luciferase, through which the cAMP signaling regulates the transcription of luciferase proportionally. Thus, the readout of the luminescence corresponds to the extent to which the expressed TcSKR is activated in Sf9 cells. The SK-related peptides (Table 1) were tested at concentrations of 0.1, 1 and 10 μM.
# (§3) Sf9, Sf9-TcSKR1 and Sf9-TcSKR2 cells were all transiently transfected with pGL4.29[luc2P/CRE/Hygro] using ESCORT™ IV transfection reagent (Sigma-Aldrich, Bornem, Belgium) following the manufacturer’s instruction. Medium was supplemented with 200 μg/ml hygromycin (Life Technologies, Merelbeke, Belgium) 24 h post-transfection. The transient cells (Sf9-CRE, Sf9-TcSKR1-CRE, Sf9-TcSKR2-CRE) were seeded at 20,000 cells per well in white 96-well plates (Greiner Bio-One, Frickenhausen, Germany). After 12 h, cells had attached to the well bottom and the medium was replaced by fresh medium containing peptide of designated concentrations. Each concentration was tested in three replicates and the entire assay was repeated at least twice. Two kinds of negative control were included. […] Second, Sf9-CRE cells were used as a negative control to eliminate the potential internal factors that were activated by peptide samples. Cells were incubated with a peptide for 5 h at 27 °C and then Bright-Glo™ luciferase assay (Promega, Leiden, the Netherlands) was carried out according to the manufacturer’s instruction. Light emission, resulting from the luciferase activity was measured for 10 seconds per well using an Infinite® 200 PRO microplate reader (Tecan, Mechelen, Belgium).
# (§4) In the receptor activation bioassay, the activity of a peptide on TcSKR was represented by the increased luminescence units, calculated with the following formula: activitypeptide = (luminescencepeptide – luminescencemedium)/luminescencemedium × 100. The activity of SK-related peptide was compared to that of nsSK and medium control by one-way analysis of variance with the Dunnett’s posttest in GraphPad Prism version 5.00 (GraphPad Software, La Jolla, CA). The activity of a SK-related peptide was also related to the activity of nsSK as a percentage value, calculated with the formula: relative activity of peptide (% nsSK) = activitypeptide/activitynsSK × 100.
# TcSKR1 = test: Receptor activation bioassay, CRE-luciferase reporter in Sf9-TcSKR1 cells; assay type: cell-based, Tribolium castaneum; set-up: key to peptide marked active on TcSKR1: *: A peptide is active on the sulfakinin receptor (SKR); conditions: for peptide marked active on TcSKR1: 10 μM, one-way ANOVA with Dunnett's posttest vs nsSK and medium control; for activity on TcSKR1 in words: compared to parental peptide nsSK, Sf9 cell-based reporter; for relative activity (% nsSK) TcSKR1: peptide 10 μM, Sf9-TcSKR1 cells transiently transfected with pGL4.29[luc2P/CRE/Hygro], 5 h at 27 °C, Bright-Glo luminescence, activity related to nsSK, mean ± SEM, at least two biological replicates, SEM
# Description: as §1, §2, §3, §4
# TcSKR2 [2] = conditions: previous experiments; cited from earlier work
# Text: As a satiety factor, insect SK signaling provides insights into the development of new pest control strategies. […] This lead to a hypothesis that sSK and nsSK interact with the two TcSKRs differently. Therefore, understanding the interaction of ligand and receptor will promote the ...
Substance,peptide marked active on TcSKR2 (TcSKR2 [1]),activity on TcSKR2 in words (TcSKR2 [1]),relative activity (% nsSK) TcSKR2 (TcSKR2 [1]) [% nsSK],peptide marked active on TcSKR1 (TcSKR1),activity on TcSKR1 in words (TcSKR1),relative activity (% nsSK) TcSKR1 (TcSKR1) [% nsSK],potency of sSK relative to nsSK to activate TcSKR2 (TcSKR2 [2])
"DDY(SO3H)GHMRF-NH2 [Peptide 1658, sulfated SK-related peptide DDY(SO3H)GHMRF-NH2]",*,much more active than nsSK; also recorded: retention of activity,516.8 ± 50.6,*,retention of activity,64.8 ± 8.4,
"DDYGHMRF-NH2 [Peptide 2009, truncated nsSK, DDYGHMRF-NH2]",,,1.2 ± 13.7,,,7.8 ± 11.8,
"DYGHMRF-NH2 [Peptide 2010, truncated nsSK, DYGHMRF-NH2]",,,8.6 ± 9.1,,,28.1 ± 15.6,
"EADY(SO3H)GHNleRF-NH2 [Peptide 1591-1, sulfated SK-related peptide EADY(SO3H)GHNleRF-NH2]",*,much more active than nsSK; also recorded: retention of activity,113.7 ± 60.5,*,retention of activity,82.6 ± 2.0,
"FDDAGHMRF-NH2 [Peptide 2008, alanine-substituted nsSK, …-NH2]",,inactive,21.5 ± 10.7,,inactive,5.3 ± 1.5,
"FDDY(SO3H)GHMRF-NH2 [sSK, sulfated sulfakinin peptide FDDY(SO3H)GHMRF-NH2]",,,,,,,"1,000–10,000 times"
"FDDYAHMRF-NH2 [Peptide 2007, alanine-substituted nsSK, …-NH2]",,,8.5 ± 5.3,,kept the activity on TcSKR1 to some extent,55.0 ± 7.1,
"FDDYGAMRF-NH2 [Peptide 2006, alanine-substituted nsSK, …-NH2]",,inactive,4.0 ± 9.9,,inactive,0.5 ± 0.7,
"FDDYGHARF-NH2 [Peptide 2005, alanine-substituted nsSK, …-NH2]",,inactive,11.9 ± 2.7,,inactive,−0.8 ± 4.4,
"FDDYGHMAF-NH2 [Peptide 2004, alanine-substituted nsSK, …-NH2]",,inactive,18.7 ± 10.2,,inactive,58.0 ± 22.0,
"FDDYGHMRA-NH2 [Peptide 2003, alanine-substituted nsSK, …-NH2]",,inactive,−3.5 ± 5.9,,inactive,−2.0 ± 3.4,
"FDDYGHMRF-NH2 [nsSK, nonsulfated sulfakinin peptide …-NH2, parental peptide of the series, reference compound]",*,,100.0 ± 0.0,*,,100.0 ± 0.0,
"GHMRF-NH2 [Peptide 2053, truncated nsSK, GHMRF-NH2]",,,−4.8 ± 0.1,,,0.6 ± 0.1,
"HMRF-NH2 [Peptide 2052, truncated nsSK, HMRF-NH2]",,,1.8 ± 0.1,,,6.8 ± 0.2,
"SDDY(SO3H)GHMRF-NH2 [Peptide 1835, sulfated SK-related peptide SDDY(SO3H)GHMRF-NH2]",*,much more active than nsSK; also recorded: retention of activity,645.7 ± 126.6,*,retention of activity,76.5 ± 7.6,
"YGHMRF-NH2 [Peptide 2011, truncated nsSK, YGHMRF-NH2]",,,11.7 ± 13.5,,,2.8 ± 2.5,
